Patent US11066369B2, “N-(pyridin-2-yl)pyridine-sulfonamide derivatives and their use in the treatment of disease” (Novartis AG, priority 2016, dated 2021)
Structures can show the parent of a compound that is named as a salt.

Key:
[1] = target: T1, horseradish peroxidase (HRP) tagged delF508-CFTR (Homo sapiens, UniProt P13569, DEL508-508); assay: Measurement of delF508-CFTR-HRP surface expression in CFBE41o- cells; assay type: cell-based; conditions: delF508-CFTR-HRP surface expression, CFBE41o- cells; for Emax: read-out: DelF508-CFTR-HRP Amax %; for EC50: read-out: DelF508-CFTR-HRP EC50;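 for DelF508-CFTR-HRP Amax %: percent efficacy relative to reference corrector lumacaftor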
T1 construct: expressed in transfected cells
T1 sequence (P13569 with tags, fused parts or gaps DEL508-508): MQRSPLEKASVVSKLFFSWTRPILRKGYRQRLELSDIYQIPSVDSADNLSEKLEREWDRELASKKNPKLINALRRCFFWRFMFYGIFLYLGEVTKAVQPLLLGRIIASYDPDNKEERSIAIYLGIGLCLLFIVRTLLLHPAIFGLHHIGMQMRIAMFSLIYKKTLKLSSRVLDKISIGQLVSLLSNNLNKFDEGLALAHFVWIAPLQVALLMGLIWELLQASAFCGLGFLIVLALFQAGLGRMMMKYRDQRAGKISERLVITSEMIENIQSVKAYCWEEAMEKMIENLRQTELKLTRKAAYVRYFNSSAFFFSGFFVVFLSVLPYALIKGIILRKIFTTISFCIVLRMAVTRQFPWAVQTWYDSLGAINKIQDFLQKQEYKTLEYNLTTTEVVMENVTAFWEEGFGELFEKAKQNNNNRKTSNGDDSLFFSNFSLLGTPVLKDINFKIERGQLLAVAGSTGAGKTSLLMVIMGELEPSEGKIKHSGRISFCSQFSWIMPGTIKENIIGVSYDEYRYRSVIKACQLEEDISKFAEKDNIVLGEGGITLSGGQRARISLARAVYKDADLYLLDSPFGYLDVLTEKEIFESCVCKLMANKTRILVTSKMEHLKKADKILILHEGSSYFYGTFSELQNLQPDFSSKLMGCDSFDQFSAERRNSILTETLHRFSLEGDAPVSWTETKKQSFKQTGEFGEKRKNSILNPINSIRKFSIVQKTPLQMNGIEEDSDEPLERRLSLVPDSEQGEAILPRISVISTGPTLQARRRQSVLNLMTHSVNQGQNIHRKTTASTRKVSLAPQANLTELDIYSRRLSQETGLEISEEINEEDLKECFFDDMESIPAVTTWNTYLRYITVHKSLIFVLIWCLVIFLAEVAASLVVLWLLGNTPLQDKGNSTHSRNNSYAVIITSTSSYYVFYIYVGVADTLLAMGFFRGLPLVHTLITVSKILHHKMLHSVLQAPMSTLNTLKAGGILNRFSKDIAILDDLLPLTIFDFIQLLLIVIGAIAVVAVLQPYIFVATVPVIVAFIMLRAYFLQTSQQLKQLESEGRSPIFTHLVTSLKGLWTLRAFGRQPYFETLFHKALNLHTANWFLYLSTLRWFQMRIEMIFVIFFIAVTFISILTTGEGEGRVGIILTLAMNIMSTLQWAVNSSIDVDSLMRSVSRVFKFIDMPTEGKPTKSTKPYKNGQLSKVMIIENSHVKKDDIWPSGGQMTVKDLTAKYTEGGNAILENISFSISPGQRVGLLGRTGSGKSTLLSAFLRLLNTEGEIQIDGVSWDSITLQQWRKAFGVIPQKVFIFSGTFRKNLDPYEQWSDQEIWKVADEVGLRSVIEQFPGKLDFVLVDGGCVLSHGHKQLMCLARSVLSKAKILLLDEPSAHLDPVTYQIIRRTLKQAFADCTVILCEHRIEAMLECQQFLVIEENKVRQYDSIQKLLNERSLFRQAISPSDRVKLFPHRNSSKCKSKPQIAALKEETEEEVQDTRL
In short: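 Surface-trafficked delF508-CFTR detected via extracellular HRP tag, read as luminescence from a membrane-impermeant substrate in CFBE41o- cells. Cells pre-induced 48h with 500 ng/mL doxycycline, then exposed 24h at 37° C to a 10-point, 3-fold dilution series from 10 μM (DMSO ≤0.5%). Triplicate dose-responses fitted logistically for EC50 after per-plate normalization; fold change versus reference compound.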

delF508-CFTR = target: T2, delF508-CFTR (Homo sapiens, UniProt P13569, DEL508-508); assay: Measurement of delF508-CFTR functional activity in primary human bronchial epithelial cells (HBECs) using Multi-Transepithelial Clamp Circuit (MTECC-24) assay; assay type: cell-based; conditions: primary CF HBECs; for MTECC24 CFHBEC- Amax %: test compound added 24h before assay plus potentiator, relative to reference combination (2 μM corrector + 0.5 μM potentiator); for EC50: test compound added 24h before assay, in the presence of potentiator, mean of at least two replicates, read-out: MTECC24 CFHBEC- EC50
T2 construct: functional activity of the CFTR channel (Chloride ion transport) in patient derived primary human bronchial epithelial cells; host or cells: patient-derived primary human bronchial epithelial cells (delF508-CFTR)
T2 sequence (P13569 with tags, fused parts or gaps DEL508-508): as above
In short: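 Compound tested as 10-point, 1-in-3 concentration response (0.1% or 0.2% DMSO), 24 h basolateral pre-incubation, then re-added to both sides. MTECC-24 measured Ieq in ALI-differentiated primary delF508 bronchial cells after amiloride, forskolin activation, potentiator and INH-172 block; data normalized to DMSO baseline, EC50 fitted.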

`COC(=O)C1CCN(c2cccc(S(=O)(=O)Nc3ccc(Cl)c(-c4c(C)cccc4C)n3)n2)CC1` [Example 246, methyl 1-(6-(N-(5-chloro-6-(2,6-dimethylphenyl)pyridin-2-yl)sulfamoyl)pyridin-2-yl)piperidine-4-carboxylate] was tested, and the Emax [1] was 875%, the EC50 [1] was 1790 nM and the “MTECC24 CFHBEC- Amax %” value (delF508-CFTR) was 56.3%. It also gave an EC50 (delF508-CFTR) of 51 nM.
`Cc1c(F)cccc1-c1nc(NS(=O)(=O)c2cccc(N3CCN(C(C)(C)C)CC3)n2)ccc1C(F)(F)F` [Example 142, 6-(4-(tert-butyl)piperazin-1-yl)-N-(6-(3-fluoro-2-methylphenyl)-5-(trifluoromethyl)pyridin-2-yl)pyridine-2-sulfonamide] was tested, and the Emax [1] was 418%, the EC50 [1] was 2630 nM and the “MTECC24 CFHBEC- Amax %” value (delF508-CFTR) was 63.7%. For the same compound, the EC50 (delF508-CFTR) was 5.2 nM.
In the case of `CCCC1(C(=O)O)CCN(c2cccc(S(=O)(=O)Nc3ccc(C(F)(F)F)c(-c4ccccc4CC)n3)n2)CC1` [Example 351, 1-(6-{[6-(2-ethylphenyl)-5-(trifluoromethyl)pyridin-2-yl]sulfamoyl}pyridin-2-yl)-4-propylpiperidine-4-carboxylic Acid], the Emax [1] is reported as 492%, the EC50 [1] is reported as 870 nM and the “MTECC24 CFHBEC- Amax %” value (delF508-CFTR) is reported as 99.7%. The EC50 (delF508-CFTR) was 107 nM.
With `CCOC(=O)C1(C)CCN(c2cccc(S(=O)(=O)Nc3ccc(Cl)c(-c4ccccc4C)n3)n2)CC1` [Example 254, ethyl 1-(6-(N-(5-chloro-6-(o-tolyl)pyridin-2-yl)sulfamoyl)pyridin-2-yl)-4-methylpiperidine-4-carboxylate] the Emax [1] was 620%, the EC50 [1] was 2590 nM and the “MTECC24 CFHBEC- Amax %” value (delF508-CFTR) was 62.2%. It also gave an EC50 (delF508-CFTR) of 3.8 nM.
In the case of `Cc1cccc(C)c1-c1nc(NS(=O)(=O)c2cccc(N3CCN(C)CC3=O)n2)ccc1Cl` [Example 197, N-(5-chloro-6-(2,6-dimethylphenyl)pyridin-2-yl)-6-(4-methyl-2-oxopiperazin-1-yl)pyridine-2-sulfonamide], the Emax [1] is reported as 500%, the EC50 [1] is reported as 3650 nM and the “MTECC24 CFHBEC- Amax %” value (delF508-CFTR) is reported as 73.9%. The EC50 (delF508-CFTR) was 67 nM.
For `CCOC(=O)C1(C)CCN(c2cccc(S(=O)(=O)Nc3ccc(Cl)c(-c4cc(F)ccc4C)n3)n2)CC1` [Example 256, ethyl 1-(6-(N-(5-chloro-6-(5-fluoro-2-methylphenyl)pyridin-2-yl)sulfamoyl)pyridin-2-yl)-4-methylpiperidine-4-carboxylate], the Emax [1] was 662%, the EC50 [1] was 2780 nM and the “MTECC24 CFHBEC- Amax %” value (delF508-CFTR) was 52.6%. The EC50 (delF508-CFTR) was 2.9 nM.
In the case of `Nc1cccc(S(=O)(=O)Nc2ccc(Cl)c(-c3c(F)cccc3F)n2)n1` [Example 80, 6-amino-N-(5-chloro-6-(2,6-difluorophenyl)pyridin-2-yl)pyridine-2-sulfonamide], the Emax [1] is reported as 137%, the EC50 [1] is reported as 2280 nM and the “MTECC24 CFHBEC- Amax %” value (delF508-CFTR) is reported as 50.7%. For the same compound, the EC50 (delF508-CFTR) was 96 nM.
For `C[C@]1(C(=O)O)CCCN(c2cccc(S(=O)(=O)Nc3ccc(C(F)(F)F)c(-c4ccccc4C4CCC4)n3)n2)C1` [Example 373, (S)-1-(6-(N-(6-(2-cyclobutylphenyl)-5-(trifluoromethyl)pyridin-2-yl)sulfamoyl)pyridin-2-yl)-3-methylpiperidine-3-carboxylic Acid], the Emax [1] was 367%, the EC50 [1] was 273 nM and the “MTECC24 CFHBEC- Amax %” value (delF508-CFTR) was 93.1%. It also gave an EC50 (delF508-CFTR) of 1.17 nM.
In the case of `Cc1ccc(C#N)cc1-c1nc(NS(=O)(=O)c2cccc(N3CC(C)(O)C3)n2)ccc1C(F)(F)F` [Example 299, N-(6-(5-cyano-2-methylphenyl)-5-(trifluoromethyl)pyridin-2-yl)-6-(3-hydroxy-3-methylazetidin-1-yl)pyridine-2-sulfonamide], the Emax [1] is reported as 554%, the EC50 [1] is reported as 2440 nM and the “MTECC24 CFHBEC- Amax %” value (delF508-CFTR) is reported as 61.7%. The EC50 (delF508-CFTR) was 9.4 nM.
In the case of `Cc1c(F)cccc1-c1nc(NS(=O)(=O)c2cccc(N3CCC[C@H](C(=O)O)C3)n2)ccc1C(F)(F)F` [Example 360, (3S)-1-(6-{[6-(3-fluoro-2-methylphenyl)-5-(trifluoromethyl)pyridin-2-yl]sulfamoyl}pyridin-2-yl)piperidine-3-carboxylic Acid], the Emax [1] is reported as 546%, the EC50 [1] is reported as 2110 nM and the “MTECC24 CFHBEC- Amax %” value (delF508-CFTR) is reported as 57.5%. For the same compound, the EC50 (delF508-CFTR) was 47.4 nM.
`Cc1ccccc1-c1nc(NS(=O)(=O)c2cccc(N3CCN(CC(N)=O)CC3)n2)ccc1C(F)(F)F` [Example 183, 2-(4-(6-(N-(6-(o-tolyl)-5-(trifluoromethyl)pyridin-2-yl)sulfamoyl)pyridin-2-yl)piperazin-1-yl)acetamide] was tested, and the Emax [1] was 191%, the EC50 [1] was 896 nM and the “MTECC24 CFHBEC- Amax %” value (delF508-CFTR) was 67.8%. The EC50 (delF508-CFTR) was 74.9 nM.
With `Cc1ccccc1-c1nc(NS(=O)(=O)c2cccc(N3CCNCC3)n2)ccc1Cl` [Example 195, N-(5-chloro-6-(o-tolyl)pyridin-2-yl)-6-(piperazin-1-yl)pyridine-2-sulfonamide hydrochloride] the Emax [1] was 213%, the EC50 [1] was 3380 nM and the “MTECC24 CFHBEC- Amax %” value (delF508-CFTR) was 80.0%. The EC50 (delF508-CFTR) was 464 nM.
With `Nc1cccc(S(=O)(=O)Nc2ccc(C(F)(F)F)c(-c3ccccc3C3CC3)n2)n1` [Example 28] the Emax [1] was 429%, the EC50 [1] was 1380 nM and the “MTECC24 CFHBEC- Amax %” value (delF508-CFTR) was 77.1%. It also gave an EC50 (delF508-CFTR) of 1.6 nM.
In the case of `Cc1cccc(C)c1-c1nc(NS(=O)(=O)c2cccc(N3CCC(C(=O)O)CC3)n2)ccc1Cl` [Example 247, 1-(6-(N-(5-chloro-6-(2,6-dimethylphenyl)pyridin-2-yl)sulfamoyl)pyridin-2-yl)piperidine-4-carboxylic Acid], the Emax [1] is reported as 493%, the EC50 [1] is reported as 3090 nM and the “MTECC24 CFHBEC- Amax %” value (delF508-CFTR) is reported as 57.0%. For the same compound, the EC50 (delF508-CFTR) was 191 nM.
`Cc1ccccc1-c1nc(NS(=O)(=O)c2cccc(N3CCNCC3)n2)ccc1C(F)(F)F` [Example 161, 6-(piperazin-1-yl)-N-(6-(o-tolyl)-5-(trifluoromethyl)pyridin-2-yl)pyridine-2-sulfonamide (HCl Salt)] was tested, and the Emax [1] was 222%, the EC50 [1] was 2900 nM and the “MTECC24 CFHBEC- Amax %” value (delF508-CFTR) was 88.2%. For the same compound, the EC50 (delF508-CFTR) was 91.6 nM.
`Nc1cccc(S(=O)(=O)Nc2ccc(Cl)c(-c3ccccc3C(F)(F)F)n2)n1` [Example 55, 6-amino-N-(5-chloro-6-(2-(trifluoromethyl)phenyl)pyridin-2-yl)pyridine-2-sulfonamide] was tested, and the Emax [1] was 305%, the EC50 [1] was 1700 nM and the “MTECC24 CFHBEC- Amax %” value (delF508-CFTR) was 86.7%. It also gave an EC50 (delF508-CFTR) of 15.5 nM.
For `Cc1ccc(C(F)(F)F)cc1-c1nc(NS(=O)(=O)c2cccc(N3CC(C)(O)C3)n2)ccc1Cl` [Example 212, N-(5-chloro-6-(2-methyl-5-(trifluoromethyl)phenyl)pyridin-2-yl)-6-(3-hydroxy-3-methylazetidin-1-yl)pyridine-2-sulfonamide], the Emax [1] was 378%, the EC50 [1] was 1820 nM and the “MTECC24 CFHBEC- Amax %” value (delF508-CFTR) was 68.0%. For the same compound, the EC50 (delF508-CFTR) was 82 nM.
With `CCC1(C(=O)O)CCN(c2cccc(S(=O)(=O)Nc3ccc(Cl)c(-c4c(C)cccc4C)n3)n2)CC1` [Example 248, 1-(6-(N-(5-chloro-6-(2,6-dimethylphenyl)pyridin-2-yl)sulfamoyl)pyridin-2-yl)-4-ethylpiperidine-4-carboxylic Acid] the Emax [1] was 568%, the EC50 [1] was 1610 nM and the “MTECC24 CFHBEC- Amax %” value (delF508-CFTR) was 68.2%. The EC50 (delF508-CFTR) was 6.6 nM.
In the case of `Cc1ccccc1-c1nc(NS(=O)(=O)c2cccc(O[C@@H]3COC[C@@H]3O)n2)ccc1C(F)(F)F` (racemic) [Example 291, rac-6-{[(3RS,4SR)-4-hydroxyoxolan-3-yl]oxy}-N-[6-(2-methylphenyl)-5-(trifluoromethyl)pyridin-2-yl]pyridine-2-sulfonamide], the Emax [1] is reported as 496%, the EC50 [1] is reported as 2500 nM and the “MTECC24 CFHBEC- Amax %” value (delF508-CFTR) is reported as 73.6%. The EC50 (delF508-CFTR) was 13.3 nM.
